The values that follow come from patent US12215123B2, “Cordycepin-based derivatized compound with anti-tumor effect” (NANJING TECH UNIVERSITY, priority 2022, dated 2025).

For data set [1], the system named is small cell lung cancer cell line H446. Kind of data set: MTT proliferation, small cell lung cancer cell line H446. The class given is cell-based. As to conditions: for IC50: read-out: IC50 (μM) of compounds in small cell lung cancer cells, H446. On the procedure:
(§1) The method for determining inhibitory activities of the compounds on the proliferation of tumor cells by an MTT method is as follows: a bottle of cells in a good state in an exponential growth phase is added with 0.25% trypsin digestive juice, the digestion makes adherent cells fall off, with 2 to 4×10^4 cells/mL, and a cell suspension is prepared. The cell suspension is inoculated on a 96-well plate, with 90 μL/well, and cultured in a constant-temperature CO2 incubator for 24 hours. The prepared compounds are added for testing, with 10 μL/well, and cultured for 72 hours. An MTT reagent is added into a 96-well plate, with 10 μL/well, and reacts in an incubator for 4 hours to absorb a supernatant, and then dimethyl sulfoxide is added, with 100 μL/well. After a crystal is dissolved, an absorbance of each well at a wavelength of 570 nm is measured by an enzyme-linked immunosorbent assay instrument, and a cell inhibition rate is calculated. An S curve is made with a compound concentration and a corresponding inhibition rate. Therefore, IC50 of a corresponding compound is obtained.
(§2) Anti-tumor dose-effect relationship curves of cordycepin and compounds 1, 2, 4, 5, 7, 8, 10, 12, 16, 18, 21, 23, 24, 35 and 38 in small cell lung cancer cell lines H1048, H446 and H69 were analyzed by an MTT experimental method.

The test system of data set [2] is gastric cancer cell line AGS. Kind of data set: MTT proliferation, gastric cancer cell line AGS. The class given is cell-based. The conditions noted are these: read-out: IC50 (μM) in gastric cancer cells, AGS. On the procedure:
as §1
(§3) Anti-tumor dose-effect relationship curves of the cordycepin and 40 compounds prepared in gastric cancer cell lines AGS and BGC-823 were analyzed by an MTT experimental method.

Data set [3] has as its system small cell lung cancer cell line H69. Kind of data set: MTT proliferation, small cell lung cancer cell line H69. The class given is cell-based. The conditions noted are these: read-out: IC50 (μM) of compounds in small cell lung cancer cells, H69. The protocol:
as §1, §2

The subject of data set [4] is wild-type AB-line zebrafish. The conditions noted are these: 3 dpf to 5 dpf, 35° C.; survival rate>90% and teratogenicity<20%. The protocol:
The zebrafish model is a wild-type AB-line zebrafish from College of Biotechnology and Pharmaceutical Engineering, Nanjing Tech University, and is carried out by a natural mating reproduction method, with 30 zebrafish of 2 dpf in each experimental group. The zebrafish is fed in fish culture water at 28° C. (water quality:200 mg of instant sea salt and CaCO3 are added into 1 L of reverse osmosis water with a conductivity of 480 uS/cm to 510 uS/cm, a pH value of 6.9 to 7.2, and a hardness of 53.7 mg/L to 71.6 mg/L), and the feeding management meets the requirements of international AAALAC certification.
240 3 dpf wild-type AB-line zebrafish were randomly selected in an 8-well plate, with 30 zebrafish in each well, and 3 mL of fish culture water in each well, the cordycepin was diluted according to a maximum lethal dose, dissolved in DMSO, and added into each well according to a concentration gradient (the maximum lethal dose was diluted by 100 times, in which 8 concentration gradient values were taken for the experiment), and meanwhile, a normal control group, a solvent control group G (5% glucose) and a solvent control group D (DMSO) were set. During the experiment, the zebrafish in each group were cultured at 35° C., after the zebrafish were treated to be 5 dpf with a sample to be tested, lethal and developmental malformation conditions of the zebrafish in different doses were investigated respectively, and a maximum tolerance dose (MTD) of the sample to be tested to normal zebrafish was determined under a concentration when survival rate>90% and teratogenicity<20%.

The test system of data set [5] is small cell lung cancer cell line H1048. Kind of data set: MTT proliferation, small cell lung cancer cell line H1048. The class given is cell-based. The conditions noted are these: read-out: IC50 (μM) of compounds in small cell lung cancer cells, H1048. The protocol: as §1, §2
The test system of data set [6] is gastric cancer cell line BGC-823. Kind of data set: MTT proliferation, gastric cancer cell line BGC-823. The class given is cell-based. As to conditions: read-out: IC50 (μM) in gastric cancer cells, BGC-823. On the procedure: as §1, §3
For the next data set, the system named is B16-F10 melanoma cells. Kind of data set: Mouse transplanted melanoma model. The class given is in vivo, C57BL/6j nude mice. As to conditions: B16-F10 transplanted mice, intragastric 500 ug/time/animal every other day, 24 days; blank 1760 mm^3. The protocol: The feeding of the mouse model in the drug evaluation follows that: mice are fed and treated in a laminar flow cabinet, with 5 nude mice in each cage, drinking water and feedstuffs are added once every 3 days, and paddings are replaced once a week; a number of mice kept in each cage is no more than 5, the mice in separate cages are kept in groups as far as possible, and the mice should not be kept in a single cage; the animal management must conform to the relevant national standards on animal feeding management, and the behavioral needs of animals should be concerned at the same time to avoid unnecessary stress; the normal physiological and behavioral needs of animals, such as defecation, urination, constant body temperature maintenance, normal activities, posture adjustment and reproduction are met; good ventilation and dry animals are kept; the animals can access to drinking water and food at will, and supplementation, replacement and cleaning operations are easily carried out; a solid and safe environment is provided to avoid accidents of animals, such as escaping or limb trapping in a gap; the animals are avoided from being damaged by sharp edges or protrusions; and the animals are not disturbed during observation.
A mouse transplanted melanoma model was established and a drug was evaluated. 2.5×10^5 B16-F10 melanoma cells were suspended in 100 μL of PBS to be inoculated into an outer side of thigh of left lower limb of C57BL/6j nude mice. One week later, when the transplanted tumor reached about 100 mm^3, the mice were randomly divided into ten groups, with 10 mice in each group, comprising a blank control group, a cordycepin group, a compound 13 group, a compound 14 group, a compound 17 group, a compound 19 group, a compound 22 group, a compound 26 group, a compound 29 group and a compound 34 group respectively. The blank control group was intragastrically administrated with a nutritional agent such as a corn steep liquor and DMSO as a solvent control every day for 24 consecutive days, and the compound groups were intragastrically administrated with corresponding compounds (500 ug/time/animal in all cases) every other day for 24 consecutive days. […] The mice were killed after the experiment, blood and corresponding tissue samples were collected, tumor bodies were immediately photographed and weighed, and some tumor tissues were fixed in a formalin solution to be further detected. Two vertical diameters (length and width) of the transplanted tumor were measured with a caliper every two days to calculate a size of the transplanted tumor, and a tumor value was calculated according to a formula: tumor volume (mm^3)=[…].

[7] abbreviates: Homo sapiens, NCI-H446, 72 h, MTT, 72 hours, H446.
The mark [8] stands for this setting: Homo sapiens, NCI-H1048, 72 h, MTT, 72 hours, H1048.
Setting [9] is: Homo sapiens, MTT, 72 hours, BGC-823.

Where two headings read alike, the source gives them in different places.

`Nc1ncnc2c1ncn2[C@@H]1O[C@H](COP(=O)(O)O)CC1O` (stereo partly shown) [Compound 2, (5-(6-amino-9H-purine-9-yl)-4-hydroxytetrahydrofuran-2-yl)dihydromethyl phosphate]: the IC50 in data set [1] (setting [7]) stood at 76.8 µM; in data set [2] (MTT, 72 hours, AGS), 142 µM; in data set [3] (MTT, 72 hours, H69), 50.2 µM; in data set [5] (setting [8]), 55.3 µM; in data set [6] (setting [9]), 209 µM. For the same compound, the “Maximum tolerance dose (MTD) in zebrafish model” value (from here on “Maximum tolerance dose (MTD)”) in data set [4] was found to be 845 µM.
For `CC(C)C(=O)OCOP(=O)(COC[C@@H]1CC(O)[C@H](n2cnc3c(N)ncnc32)O1)OCOC(=O)C(C)C` (stereo partly shown) [Compound 5], the IC50 came to 43.3 µM in data set [1] (setting [7]); 72.7 µM in data set [2] (MTT, 72 hours, AGS); 53.4 µM in data set [3] (MTT, 72 hours, H69); 40.9 µM in data set [5] (setting [8]); 91.5 µM in data set [6] (setting [9]). Further, in data set [4], the “Maximum tolerance dose (MTD)” value was 525 µM.
As for `CC(C)OC(=O)C(C)NP(=O)(COC[C@@H]1CC(O)[C@H](n2cnc3c(N)ncnc32)O1)Oc1ccccc1` (stereo partly shown) [Compound 7], the IC50 in data set [1] (Homo sapiens, NCI-H446, 72 h) is 20.5 µM; in data set [2] (72 h) it was 2.46 µM; in data set [3] (72 h), 9.59 µM; in data set [5] (Homo sapiens, NCI-H1048, 72 h) it was 12.1 µM; in data set [6] (Homo sapiens, BGC-823, 72 h), 1.61 µM. Further, the “Maximum tolerance dose (MTD)” value in data set [4] is 62 µM.
With `NC1=CS(=O)(=O)OC12C[C@@H](COP(=O)(O)O)O[C@H]2n1cnc2c(N)ncnc21` (stereo partly shown) [Compound 9, (4-amino-6-(6-amino-9H-purin-9-yl)-2,2-dioxide-1,7-dioxane-2-thiaspiro[4.4]non-3-ene-8-yl)dihydromethyl phosphate], the half-maximal inhibitory concentration (IC50) in data set [2] (MTT, 72 hours, AGS) is 0.46 µM; in data set [6] (setting [9]) it was 1.24 µM. In addition, the “Maximum tolerance dose (MTD)” value in data set [4] worked out at 14 µM.
With `O=C(Nc1ncnc2c1ncn2[C@@H]1O[C@H](CO)CC1O)C1CCCC1` (stereo partly shown) [Compound 11], the IC50 in data set [2] (MTT, 72 hours, AGS) is 13 µM; in data set [6] (setting [9]), 10.3 µM. Besides, the “Maximum tolerance dose (MTD)” value in data set [4] is 75 µM.
Take `Nc1nc(F)nc2c1ncn2[C@@H]1O[C@H](COP(=O)(O)O)CC1O` (stereo partly shown) [Compound 13, (5-(6-amino-2-fluoro-9H-purine-9-yl)-4-hydroxytetrahydrofuran-2-yl)dihydromethyl phosphate]: the IC50 in data set [2] (MTT, 72 hours, AGS) came out at 32.5 µM; in data set [6] (setting [9]), 36.8 µM. Also, the “Maximum tolerance dose (MTD)” value in data set [4] worked out at 0.05 µM.
As for `CC(C)(C)C(=O)OCOP(=O)(COC[C@@H]1CC(O)[C@H](n2cnc3c(N)nc(S)nc32)O1)OCOC(=O)C(C)(C)C` (stereo partly shown) [Compound 19], the IC50 in data set [2] (MTT, 72 hours, AGS) worked out at 0.46 µM; in data set [6] (setting [9]), 0.76 µM. Moreover, the tumor volume entry in the data set with B16-F10 melanoma cells is listed as “about 240 mm^3”.
In the case of `CC(C)OC(=O)C(C)NP(=O)(COC[C@@H]1CC(O)[C@H](n2cnc3c(N)nc(F)nc32)O1)Oc1ccccc1` (stereo partly shown) [Compound 20, isopropyl((((5-(6-amino-2-fluoro-9H-purin-9-yl)-4-hydroxytetrahydrofuran-2-yl)methoxy)methyl)(phenoxy)phosphoryl)alanine ester], the IC50 was found to be 0.94 µM in data set [2] (72 h) and 1.37 µM in data set [6] (Homo sapiens, BGC-823, 72 h). Also, the “Maximum tolerance dose (MTD)” value in data set [4] was found to be 0.12 µM.
In the case of `[N-]=[N+]=N[C@@H]1C(O)[C@H](n2cnc3c(N)ncnc32)O[C@@H]1COP(=O)(O)O` (stereo partly shown) [Compound 25, (5-(6-amino-9H-purine-9-yl)-3-azide-4-hydroxytetrahydrofuran-2-yl)dihydromethyl phosphate], the IC50 in data set [2] (MTT, 72 hours, AGS) was 47.6 µM; in data set [6] (setting [9]), 58.5 µM. Also, the “Maximum tolerance dose (MTD)” value in data set [4] was found to be 12 µM.
Take `Nc1nc(F)nc2c1ncn2C1OC(COC2CC(CO)C(O)C2O)CC1O` (stereo not shown) [Compound 36, 3-((5-(6-amino-2-fluoro-9H-purin-9-yl)-4-hydroxytetrahydrofuran-2-yl)methoxy)-5-(hydroxymethyl)cyclopentane-1,2-diol]: the IC50 in data set [2] (MTT, 72 hours, AGS) was found to be 103 µM; in data set [6] (setting [9]), 90.2 µM. Besides, the “Maximum tolerance dose (MTD)” value in data set [4] turned out to be 0.02 µM.
On the same counts, the results for `CC(C)(C)C(=O)OCOP(=O)(COC[C@]1(N=[N+]=[N-])CC(O)[C@H](n2cnc3c(N)ncnc32)O1)OCOC(=O)C(C)(C)C` (stereo partly shown) [Compound 37] are 64.2 µM, 56.1 µM and 0.17 µM.
Consider `CC(C)Nc1nc2c(N)ncnc2n1[C@@H]1O[C@H](COP(=O)(O)O)CC1O` (stereo partly shown) [Compound 39, (5-(6-amino-8-(isopropylamino)-9H-purin-9-yl)-4-hydroxytetrahydrofuran-2-yl)dihydromethyl phosphate], for which the IC50 came out at 187 µM in data set [2] (MTT, 72 hours, AGS) and 167 µM in data set [6] (setting [9]). Further, in data set [4], the “Maximum tolerance dose (MTD)” value came to 28 µM.
With “(5-(2-((E)-2-bromocarbonyl)-6-(isonicotinamide)-9H-purin-9-yl)-4-hydroxytetrahydrofuran-2-yl)dihydromethyl phosphate [Compound 35]”, the IC50 in data set [1] (MTT, 72 hours, H446) was found to be 21.4 µM; in data set [2] (MTT, 72 hours, AGS), 69.4 µM; in data set [3] (MTT, 72 hours, H69), 21.5 µM; in data set [5] (MTT, 72 hours, H1048), 32.6 µM; in data set [6] (MTT, 72 hours, BGC-823) it was 71 µM. For the same compound, in data set [1] (stated in words for all three lines H1048, H446 and H69, MTT), the “killing effect on the three lines of cells in vitro” value is recorded as “strong killing effect”. Moreover, the “Maximum tolerance dose (MTD)” value in data set [4] was 0.025 µM.

For orientation: IC50 means the concentration needed to halve the response being measured.
